Measured values as given in US11998008B2, “Pesticides and methods of controlling pests” (The State of Israel, Ministry of Agriculture & Rural …, priority 2017, dated 2024).

Experiments:
[1] = system: Meloidogyne javanica second stage juveniles (J2s); test: Nematocidal activity: viability of J2 nematodes after 2 days exposure to the compound in a sealed box; assay type: in vivo; settings: comparison within the series
Text: In exemplary procedures, the sedentary root-knot nematode from the genus Meloidogyne javanica second stage juveniles (J2s) was propagated on greenhouse-grown nematode-susceptible tomato Lycopersicon esculentum cv. ‘Avigail 870’ (Hazera, Shikmim, Israel), and nematode eggs were bulk-extracted from the roots with 0.05% (v/v) sodium hypochlorite (NaOCl) followed by sucrose flotation and successive sievings through nylon filters of 300, 120, 60, and 30 μm mesh sizes (AD Sinun Technologies, Petach Tikvah, Israel). For hatching J2, extracted eggs were placed on 30-μm sieves (AD Sinun Technologies) in 0.01 M MES (2-(N-morpholino) ethanesulfonic acid hydrate) pH 6.5 buffer under aseptic conditions in darkness for 5 days, and hatching J2s were collected for further experiments.
Seven vials, each containing 300 J2 nematodes with 0.5 mL of 0.01 M 2-(N-morpholino)ethanesulfonic acid (MES) buffer, were exposed to cyclic ketone compounds in order to examine their nematocidal activity and reduction in viability. In addition, a humid environment in a sealed 1 L box was maintained by addition 5 ml of distilled H2O to a 50-mm Petri plate. The box was sealed after compound addition into each 50-mm Petri plate together with 5-250 mg of perlite particles and incubated for 2 days in the dark at 25±1° C. C5 and C6 saturated and α,β-unsaturated cyclic ketones were tested for their nematocidal activity. The J2 nematodes viability was examined following exposure to the cyclic ketone compounds, by a straightforward small-scale nematode extraction method, based on the traditional Baermann funnel method. Briefly, all nematode suspensions were loaded onto 30-μm (AD Sinun Technologies) filters (1.0-1.5 cm height, 1.1-2.0 cm^3 internal area), and the nematodes were washed twice with 300 μL of 0.01 M MES buffer in order to remove any residues. Then, filters holding nematodes were placed into 15 mL Falcon centrifuge tubes, each containing 900 μL of 0.01 M of MES buffer. These filters allow active passage of only living J2s while paralyzed or dead nematodes remain on top of the filter. The whole apparatus including the filter holding the nematodes and the Falcon tubes were placed in the dark for 3 h at 25±1° C. Then, the filters were removed and the viable nematodes, which were able to actively cross the filter toward the 0.01 M of MES buffer, were collected from the Falcon tube and counted using a Nematode Counting Slide (Chalex LLC, Portland, OR, USA) and a SV11 stereomicroscope (Zeiss, Jena, Germany).
Data were analyzed by the JMP 12 software package (SAS Inc., Cary, NC, USA). Mean numbers of viable J2s under various conditions were subjected to one-way analysis of variance (ANOVA), followed by the Tukey-Kramer multiple comparison test, with significance set at P<0.05.

[2] = system: A. alternata; test: Fungicidal activity assay on PDA in sealed Petri dish (growth inhibition and mortality); assay type: cell-based, Alternaria alternata; settings: Alternaria alternata, NA + number = still viable in the highest concentration tested (given as >), read-out: M - Mortality, minimal concentration that killed the fungus
Experimental: (§1) In exemplary procedures, the fungicidial activity of the compounds listed in Table 2 were examined by activity assays as follow: Petri dishes, 90 mm in diameter, with air volume of 80 mL, contained 10-12 mL of growth medium comprising potato dextrose agar (PDA) (Acumedia, Lansing, Michigan, USA) amended with tetracycline at 12 μg/mL. Each compound was placed on a disconnected cover from an Eppendorf tube that was located in the middle of the Petri dish and a hyphae-containing plug of each test fungus was added to the culture plate. In exemplary procedures, the tested compounds trans-2-heptenal, trans-2-octenal were tested in comparison with octanal, trans-2-octen-1-ol, methyl trans-2-octenoate, trans-3-octen-2-one and 3-pentenenitrile. In addition, cyclic ketones as 2-cyclopenten-1-one, 2-cyclohexen-1-one and α-tetralone were also examined. Then, the culture plate was sealed with parafilm and incubated at room-temperature for 2 days, after which the growth of the test fungi in those dishes was compared with those in the test compound-free control dishes. At the end of the assay, the viability of each test fungus was evaluated by transferring inoculum plugs to fresh PDA plates and observing the growth that developed within the next 2 days. The test fungi used in this study included but were not limited to Alternaria alternata, Botrytis cinerea, Sclerotinia rolfsii, Penicillium digitatum, Fusarium oxysporum f. sp. radicis-cucumerinum and Rhizoctonia solani.

[3] = system: B. cinerea; test: as above; assay type: cell-based, Botrytis cinerea; settings: Botrytis cinerea, NA + number = still viable in the highest concentration tested (given as >), read-out: M - Mortality, minimal concentration that killed the fungus
Experimental: as §1

[4] = system: test fungi; test: Fungicidal activity assay on PDA, summaries over the test fungi; assay type: cell-based; settings: over the fungi tested
[5] = system: Fusarium oxysporum f sp. radicis-lycopersici (Forl); test: Effect on Forl in loam soil in buckets, applied by irrigation system; assay type: in vivo; settings: open and close conditions, except depth 30 cm at the lowest concentration in close condition
Experimental: The activity of trans-2-octenal was examined against phytopathogenic fungi and weeds. The experiment was performed in large buckets (110 L), which bottoms were removed, and therefore the loam in the bucket was continuous with the ground. The soil was inoculated one day prior the application of the compound. Soil inoculation was performed as follows: spores of Fusarium oxysporum f sp. radicis-cucumerinum (FORC) were collected from culture plates and 25 mL of spore suspension at concentration of 9×10^5 was mixed with 10 L of tap water and then poured on the soil of each bucket. […] Half of the buckets were sealed with nylon while the other half remained open. Five days later, soil samples from three different depths (10, 20, and 30 cm) were taken from each bucket for fungal isolation and determination of fungal survival. […] After 3 days, the number of colonies was counted. […] Similar results were obtained at close condition, except at depth 30 cm at concentration of 62.5 ppm.
The experiment was repeated with the following modifications: different phytopathogenic fungus—Fusarium oxysporum f sp. radicis-lycopersici (Forl), lower concentrations—31.25, 62.5, and 93.75 ppm, and the application of the compound was done using the irrigation system.

[6] = system: Solanum nigrum seeds; test: Viability of weed seeds buried in sandy soil; assay type: in vivo; settings: 54 ppm of emulsion, depth 10 cm, 6 days in soil, evaluated 6 days after resowing
Experimental: The effect of trans-2-octenal was also examined on the weed Solanum nigrum. To this end, 20 seeds of this weed were put in tea bags and buried in sandy soil at the depth of 10 cm. Six (6) days later, 54 ppm of emulsion of trans-2-octenal were applied via the irrigation system. After additional 6 days the seeds were removed from the soil and sown in fresh loam pots. A control experiment was performed as above except that the seeds were irrigated with tap water without the compound. The viability of the seeds was evaluated after 6 days.

[7] = system: tomato seedlings; test: Phytotoxicity: growth of tomato seedlings in treated sandy soil in pots; assay type: in vivo; settings: soil treated with 54 ppm, nine days
Experimental: Sandy soil from a plot that was treated with 54 ppm of trans-2-octenal was removed to small pots in which either seeds of corn, cotton, and peanut were sown (FIGS. 16A-16C) or tomato seedlings were planted therein (FIG. 16E).

[8] = system: tomato strain Abigail; test: Field phytotoxicity in loam soil, seedlings planted one day after application; assay type: in vivo; settings: emulsion, viable seedlings counted eleven days after planting
[9] = system: tomato strain Ikram; settings: in vivo, 11 days
Experimental: An experiment in a larger scale was performed in loam soil in which the seedling were planted directly in the treated plot. The soil was treated with 0, 25, 50, 100, 200, 400, 800, and 1,600 ppm of emulsion of trans-2-octenal. The compound was applied using the irrigation system. A day later, tomato seedling strains Ikram and Abigail and lettuce seedling strain Raviv (10 seedlings each) were planted into the treated soil of each concentration. Eleven days later, the number of viable seedlings was counted.

CCCCC/C=C/C=O [trans-2-octenal]
nematocidal activity in words [1]: relatively less potent nematicide
MFC [2]: 12.5 µg/mL
MFC [3]: 50 µg/mL
concentrations that completely inhibited the fungi growth and killed the fungi [4]: 6.25-50 ppm
concentration at which elimination of Forl was achieved [5]: 31.25 ppm
viability of the seeds [6]: eliminated seeds viability
growth of the tomato seedling in treated versus untreated soil [7]: no significant difference
concentration at which significant phytotoxic effect occurred [8]: 400 ppm
concentration at which phytotoxic effect was displayed [9]: 800 ppm
